Earlier results as cited in patent publication US6680310B2, “Methods for preventing antipsychotic-induced weight gain” (Corcept Therapeutics, Inc., priority 2001, dated 2004).

Conditions: in one study (Kawai, supra)

CC#C[C@]1(O)CC[C@H]2[C@@H]3CCC4=CC(=O)CCC4=C3[C@@H](c3ccc(N(C)C)cc3)C[C@@]21C [Mifepristone, 17-beta-hydroxy-11-beta-(4-dimethyl-aminophenyl)-17-alpha(1-propynyl)-estra-4,9-dien-3-one]
fraction of the daily dose excreted in the urine: less than 0.5%
